Results reported in US10287252B2, “Inhibitors of tryptophan-2,3-dioxygenase or indoleamine-2,3-dioxygenase” (IOmet Pharma Ltd., priority 2014, dated 2019).

How the values were obtained:
TDO = TDO (Homo sapiens, UniProt P48775); assay: A172 Kynurenine cell based assay; design: This assay utilised cancer cells which expressed either TDO or IDO; endogenous in cells; host or cells: A172 (human glioblastoma); details: A172 (human glioblastoma) cells, 500 μM L-tryptophan, 48 hours, kynurenine by Erhlich's reagent; for IC50: read-out: A172 Kynurenine cell based assay pIC50 (converted)
Chain of TDO (P48775 whole entry): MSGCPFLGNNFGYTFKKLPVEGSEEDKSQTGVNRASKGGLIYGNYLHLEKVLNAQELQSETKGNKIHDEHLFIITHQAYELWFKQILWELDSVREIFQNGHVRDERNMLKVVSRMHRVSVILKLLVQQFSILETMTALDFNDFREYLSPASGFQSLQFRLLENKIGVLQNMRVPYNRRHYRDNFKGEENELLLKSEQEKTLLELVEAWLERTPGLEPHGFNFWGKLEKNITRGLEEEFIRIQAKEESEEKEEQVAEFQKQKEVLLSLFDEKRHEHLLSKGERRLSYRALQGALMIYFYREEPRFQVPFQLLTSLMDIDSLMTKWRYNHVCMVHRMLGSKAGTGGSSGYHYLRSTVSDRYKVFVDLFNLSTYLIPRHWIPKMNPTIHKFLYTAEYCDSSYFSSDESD
Protocol: (§1) Exemplary compounds of the invention were prepared, and tested to determine their effect as TDO and/or IDO inhibitors. Two different assays were employed: 1. a cell-based assay for detecting the effect of test compounds on kynurenine production in two different cancer cell types. This assay utilised cancer cells which expressed either TDO or IDO and as such was used as a means of testing compound activity at these two enzymes in a cell-based context. 2. a TDO and IDO biochemical coupled assay which utilised recombinantly produced and purified TDO and IDO enzymes in combination with the enzyme formamidase. This coupled enzyme system allowed conversion of N-formylkynurenine produced by TDO or IDO activity to kynurenine which was then quantified by fluorescence following addition of Erhlich's Reagent The protocols for these are set out below.
(§2) Cell Based Assay for Detection of Kynurenine Produced by TDO and/or IDO
(§3) A172 (human glioblastoma) and SKOV3 (human ovarian adenocarcinoma) cells were seeded in a 96 well plate at 30,000 or 40,000 cells per well respectively in phenol red-free RPMI supplemented with 10% FCS, 2 mM L-glutamine and 500 μM L-tryptophan. IDO expression was induced in the SKOV3 cells by the addition of 500 ng/ml IFN-γ. Cells were incubated at 37° C. with or without the addition of test compound. After 48 hours, the cells were removed by centrifugation and Erhlich's reagent was added to the supernatant. The Erhlich's reagent was incubated for 5 minutes before the absorbance was read at 490 nm.

IDO = IDO (Homo sapiens, UniProt P14902); assay: SKOV3 Kynurenine cell based assay; design: IDO expression was induced in the SKOV3 cells by the addition of 500 ng/ml IFN-γ; endogenous in cells; host or cells: SKOV3 (human ovarian adenocarcinoma), induced with IFN-γ; details: SKOV3 (human ovarian adenocarcinoma) cells, IDO induced by 500 ng/ml IFN-γ, 500 μM L-tryptophan, 48 hours; for IC50: read-out: SKOV3 Kynurenine cell based assay pIC50 (converted)
Chain of IDO (P14902 whole entry): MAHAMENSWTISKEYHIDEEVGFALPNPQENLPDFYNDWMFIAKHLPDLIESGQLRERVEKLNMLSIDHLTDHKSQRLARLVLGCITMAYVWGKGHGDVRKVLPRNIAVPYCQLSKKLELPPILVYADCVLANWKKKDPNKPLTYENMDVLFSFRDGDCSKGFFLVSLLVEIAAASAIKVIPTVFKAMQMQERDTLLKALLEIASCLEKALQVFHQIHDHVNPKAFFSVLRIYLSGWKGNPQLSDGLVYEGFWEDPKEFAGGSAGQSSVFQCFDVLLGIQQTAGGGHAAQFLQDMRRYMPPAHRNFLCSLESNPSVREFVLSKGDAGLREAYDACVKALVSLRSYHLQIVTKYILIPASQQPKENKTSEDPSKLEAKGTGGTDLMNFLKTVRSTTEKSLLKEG
Protocol: as §1, §2, §3

| Structure (SMILES) | A172 Kynurenine cell based assay pIC50 (TDO) | SKOV3 Kynurenine cell based assay pIC50 (IDO) | IC50 (TDO) | IC50 (IDO) |
| --- | --- | --- | --- | --- |
| CC(C)CS(=O)(=O)N(c1cccc2cnccc12)S(=O)(=O)CC(C)C [Compound 5] | +/− (+/− = pIC50 <4.00) | + (+ = pIC50 4.00-4.49) |  |  |
| O=C(Nc1cccc2cnccc12)c1ccccc1 [Compound 7] | +/− (+/− = pIC50 <4.00) | + (+ = pIC50 4.00-4.49) |  |  |
| CN1CCOC(C(=O)Nc2cccc3cnccc23)C1 (stereo not shown) [Compound 8] | ++ (++ = pIC50 4.50-5.49) | ++ (++ = pIC50 4.50-5.49) |  |  |
| Cc1ccc(S(=O)(=O)Nc2cccc3cnccc23)cc1 [Compound 10] | +/− (+/− = pIC50 <4.00) | ++ (++ = pIC50 4.50-5.49) |  |  |
| O=S(=O)(Nc1cccc2cnccc12)c1ccccc1Cl [Compound 11] | ++ (++ = pIC50 4.50-5.49) | ++ (++ = pIC50 4.50-5.49) |  |  |
| O=S(=O)(Nc1cccc2cnccc12)c1ccc(Cl)cc1 [Compound 12] | ++ (++ = pIC50 4.50-5.49) | ++ (++ = pIC50 4.50-5.49) |  |  |
| O=S(=O)(Nc1cccc2cnccc12)c1cccc(Cl)c1 [Compound 13] | ++ (++ = pIC50 4.50-5.49) | ++ (++ = pIC50 4.50-5.49) |  |  |
| CCCS(=O)(=O)Nc1cccc2cnccc12 [Compound 15] | ++ (++ = pIC50 4.50-5.49) | +/− (+/− = pIC50 <4.00) |  |  |
| Cc1cccc(S(=O)(=O)Nc2cccc3cnccc23)c1 [Compound 17] | +++ (+++ = pIC50 ≥5.50) | ++ (++ = pIC50 4.50-5.49) |  |  |
| COc1ccc(S(=O)(=O)Nc2cccc3cnccc23)cc1OC [Compound 18] | +/− (+/− = pIC50 <4.00) | + (+ = pIC50 4.00-4.49) |  |  |
| O=S(=O)(Nc1cccc2cnccc12)c1ccc2c(c1)OCCO2 [Compound 19] | +++ (+++ = pIC50 ≥5.50) | +++ (+++ = pIC50 ≥5.50) |  |  |
| O=S(=O)(Nc1cccc2cnccc12)c1ccc(-c2ccccc2)cc1 [Compound 20] | +++ (+++ = pIC50 ≥5.50) | +++ (+++ = pIC50 ≥5.50) |  |  |
| O=S(=O)(Nc1cccc2cnccc12)c1ccccc1F [Compound 21] | ++ (++ = pIC50 4.50-5.49) | ++ (++ = pIC50 4.50-5.49) |  |  |
| O=S(=O)(Nc1cccc2cnccc12)c1ccc(F)cc1 [Compound 22] | +++ (+++ = pIC50 ≥5.50) | + (+ = pIC50 4.00-4.49) |  |  |
| O=S(=O)(Nc1cccc2cnccc12)c1ccc(F)cc1F [Compound 23] | +/− (+/− = pIC50 <4.00) | + (+ = pIC50 4.00-4.49) |  |  |
| CC(=O)Nc1ccc(S(=O)(=O)Nc2cccc3cnccc23)cc1 [Compound 24] | +/− (+/− = pIC50 <4.00) | ++ (++ = pIC50 4.50-5.49) |  |  |
| O=S(=O)(Nc1cccc2cnccc12)c1cccc(OC(F)F)c1 [Compound 26] | +++ (+++ = pIC50 ≥5.50) | ++ (++ = pIC50 4.50-5.49) |  |  |
| Cc1ccccc1S(=O)(=O)Nc1cccc2cnccc12 [Compound 27] | +++ (+++ = pIC50 ≥5.50) | ++ (++ = pIC50 4.50-5.49) |  |  |
| CN1CCOc2cc(S(=O)(=O)Nc3cccc4cnccc34)ccc21 [Compound 28] |  |  | ≤ 3.16 µM | 3.24 to 31.6 µM |
| O=S(=O)(Nc1cccc2cnccc12)c1ccc(Cl)s1 [Compound 29] | ++ (++ = pIC50 4.50-5.49) | ++ (++ = pIC50 4.50-5.49) |  |  |
| O=S(=O)(Nc1cccc2cnccc12)c1cccc2cccnc12 [Compound 30] | +/− (+/− = pIC50 <4.00) | + (+ = pIC50 4.00-4.49) |  |  |
| CC(C)Oc1ccc(S(=O)(=O)Nc2cccc3cnccc23)cc1 [Compound 31] | +/− (+/− = pIC50 <4.00) | +++ (+++ = pIC50 ≥5.50) |  |  |

| Structure (SMILES) | A172 Kynurenine cell based assay pIC50 (TDO) | SKOV3 Kynurenine cell based assay pIC50 (IDO) | IC50 (TDO) | IC50 (IDO) |
| --- | --- | --- | --- | --- |
| O=C(Nc1ccc2cnccc2c1)c1ccccc1 [Compound 32] | +/− (+/− = pIC50 <4.00) | + (+ = pIC50 4.00-4.49) |  |  |
| O=C(Nc1cncc2ccccc12)c1ccccc1 [Compound 33] | +/− (+/− = pIC50 <4.00) | + (+ = pIC50 4.00-4.49) |  |  |
| CS(=O)(=O)c1ccc(S(=O)(=O)Nc2cccc3cnccc23)cc1 [Compound 34] | +/− (+/− = pIC50 <4.00) | + (+ = pIC50 4.00-4.49) |  |  |
| COc1ccc(S(=O)(=O)Nc2cccc3cnccc23)cc1 [Compound 35] | +++ (+++ = pIC50 ≥5.50) | ++ (++ = pIC50 4.50-5.49) |  |  |
| N#Cc1ccccc1S(=O)(=O)Nc1cccc2cnccc12 [Compound 36] | +/− (+/− = pIC50 <4.00) | + (+ = pIC50 4.00-4.49) |  |  |
| CC(C)S(=O)(=O)Nc1cccc2cnccc12 [Compound 37] | + (+ = pIC50 4.00-4.49) | +/− (+/− = pIC50 <4.00) |  |  |
| O=S(=O)(Nc1cncc2ccccc12)c1ccccc1 [Compound 38] | + (+ = pIC50 4.00-4.49) | + (+ = pIC50 4.00-4.49) |  |  |
| O=S(=O)(Nc1ccc2cnccc2c1)c1ccccc1 [Compound 39] | +/− (+/− = pIC50 <4.00) | + (+ = pIC50 4.00-4.49) |  |  |
| Nc1nccc2c(NS(=O)(=O)c3ccccc3)cccc12 [Compound 40] | + (+ = pIC50 4.00-4.49) | + (+ = pIC50 4.00-4.49) |  |  |
| CC(=O)Nc1cc2c(NS(=O)(=O)c3ccccc3)cccc2cn1 [Compound 41] | +/− (+/− = pIC50 <4.00) | + (+ = pIC50 4.00-4.49) |  |  |
| CN(c1ccccc1)S(=O)(=O)c1cccc2cnccc12 [Compound 42] | + (+ = pIC50 4.00-4.49) | + (+ = pIC50 4.00-4.49) |  |  |
| O=C(Nc1ccccc1)c1cccc2cnccc12 [Compound 43] | +/− (+/− = pIC50 <4.00) | + (+ = pIC50 4.00-4.49) |  |  |
| O=S(=O)(Nc1ccccc1)c1cccc2cnccc12 [Compound 44] | + (+ = pIC50 4.00-4.49) | ++ (++ = pIC50 4.50-5.49) |  |  |
| CS(=O)(=O)N1CCN(c2cccc3cnccc23)CC1 [Compound 45, 5-(4-(methylsulfonyl)piperazin-1-yl)isoquinoline] |  |  | > 100 µM | 32.4 to 100 µM |
| O=S(=O)(Nc1ccc(Cl)cc1)c1cccc2cnccc12 [Compound 46] | + (+ = pIC50 4.00-4.49) | ++ (++ = pIC50 4.50-5.49) |  |  |
| O=S(=O)(Nc1ccc(-c2ccccc2)cc1)c1cccc2cnccc12 [Compound 47] | ++ (++ = pIC50 4.50-5.49) | ++ (++ = pIC50 4.50-5.49) |  |  |
| CC(=O)N1CCN(c2cccc3cnccc23)CC1 [Compound 48] | +/− (+/− = pIC50 <4.00) | + (+ = pIC50 4.00-4.49) |  |  |
| O=S(=O)(NC1CCCc2cnccc21)c1ccccc1 (stereo not shown) [Compound 49] | +/− (+/− = pIC50 <4.00) | + (+ = pIC50 4.00-4.49) |  |  |
| O=S(=O)(NC1CCCc2cnccc21)c1ccc(-c2ccccc2)cc1 (stereo not shown) [Compound 50] | +/− (+/− = pIC50 <4.00) | +++ (+++ = pIC50 ≥5.50) |  |  |
| O=S(=O)(NC1CCCc2cnccc21)c1ccc(Cl)cc1 (stereo not shown) [Compound 51] | +/− (+/− = pIC50 <4.00) | ++ (++ = pIC50 4.50-5.49) |  |  |
| CC(C)Oc1ccc(S(=O)(=O)NC2CCCc3cnccc32)cc1 (stereo not shown) [Compound 52] |  |  | > 100 µM | ≤ 3.16 µM |
| CC(C)Oc1ccc(S(=O)(=O)Nc2cccc3ccncc23)cc1 [Compound 53] | + (+ = pIC50 4.00-4.49) | + (+ = pIC50 4.00-4.49) |  |  |
